SMILES strings stand for the structures.

Usually melting point stands for the temperature of the solid-liquid transition. As to `N#Cc1cc(F)c(Cl)cc1O[C@H](C[C@H](N)CO)c1ccsc1.O=C(O)C(=O)O` [Example 54, 2-[[3-(3S)-Amino-4-hydroxy-1(R)-(3-thienyl)butyl]oxy]-4-chloro-5-fluorobenzonitrile ethanedioate], the melting point was 111 to 115 °C.
In the case of `COc1cc(S[C@H](C[C@@H](N)CO)c2ccccc2)c(C#N)cn1.O=C(O)/C=C/C(=O)O` [Example 11, 4-[[(1R,3R)-3-Amino-4-hydroxy-1-phenylbutyl]thio]-6-methoxy-3-pyridinecarbonitrile (E)-butenedioate], the melting point is 221 to 223 °C.
Molecule `N#Cc1ccc(CO)nc1S[C@H](C[C@H](N)CO)c1ccccc1.O=C(O)/C=C/C(=O)O` [Example 21, 2-[[(1R,3S)-3-Amino-4-hydroxy-1-phenylbutyl]thio]-6-(hydroxymethyl)-3-pyridinecarbonitrile (E)-butenedioate] returned a melting point of 147 to 149 °C.
The same measure for `CCOc1cc(S[C@H](C[C@H](N)CO)c2ccccc2)c(C#N)cn1` [Example 29, 4-[[(1R,3S)-3-Amino-4-hydroxy-1-phenylbutyl]thio]-6-ethoxy-3-pyridinecarbonitrile. (E)-butenedioate]: 169.5 to 171.5 °C; for `COc1cc(S[C@@H](C[C@@H](N)CO)c2ccccc2)c(C#N)cn1.O=C(O)/C=C/C(=O)O` [Example 12, 4-[[(1S,3R)-3-Amino-4-hydroxy-1-phenylbutyl]thio]-6-methoxy-3-pyridinecarbonitrile, (E)-butenedioate]: 162.5 to 163 °C.
In the case of `COc1cc(S[C@H](C[C@H](N)CO)c2ccccc2)c(C#N)cn1` [Example 10, 4-[[(1R,3S)-3-Amino-4-hydroxy-1-phenylbutyl-]thio]-6-methoxy-3-pyridinecarbonitrile (E)-butenedioate], the melting point was 172 to 173 °C.
Consider `COc1cc(S[C@H](C[C@H](N)CO)c2ccccc2)c(Br)cn1` [Example 27, (β^1S,β^1R)-β-Amino-δ-[(5-bromo-2-methoxy-4-pyridinyl)thio]-benzenebutanol (E)-2-butenedioate], for which the melting point lay within 178 to 180 °C.
Regarding `Cl.N#Cc1ccc(Cl)cc1S[C@H](C[C@H](N)CO)c1cncnc1` [Example 56, 2-[[(1R,3S)-3-Amino-4-hydroxy-1-(5-pyrimidyl)butyl]thio]-4-chlorobenzonitrile hydrochloride], the melting point is 120 to 130 °C.
`CNc1cc(S[C@H](C[C@H](N)CO)c2ccccc2)c(C#N)cn1.Cl.Cl` [Example 26, 4-[[(1R,3S)-3-Amino-4-hydroxy-1-phenylbutyl]thio]-6-(methylamino)-3-pyridinecarbonitrile dihydrochloride] had a melting point of 206 to 208 °C.
`N#Cc1cccnc1S[C@H](C[C@H](N)CO)c1ccccc1.O=C(O)/C=C/C(=O)O` [Example 22, 2-[[(1R,3S)-3-Amino-4-hydroxy-1-phenylbutyl]thio]-3-pyridinecarbonitrile (E)-butenedioate]: the melting point lay in the range of 67 to 69 °C.
Molecule `Cl.Cl.N#Cc1ccc(C(F)(F)F)cc1S[C@H](C[C@H](N)CO)c1cccnc1` [Example 55, 2-[[(1R,3S)-3-Amino-4-hydroxy-1-(3-pyridinyl)butyl]thio]-4-(trifluoromethyl)benzonitrile dihydrochloride] showed a melting point of 238 to 240 °C.
As to `COc1cc(S[C@@H](C[C@H](N)CO)c2ccccc2)c(C#N)cn1.O=C(O)/C=C/C(=O)O` [Example 13, 4-[[(1S,3S)-3-Amino-4-hydroxy-1-phenylbutyl]thio]-6-methoxy-3-pyridinecarbonitrile (E)-butenedioate], the melting point is 213 to 228 °C.
In turn, `N#Cc1cnc(OC(F)F)cc1S[C@H](C[C@H](N)CO)c1ccccc1.O=C(O)/C=C/C(=O)O` [Example 14, 4-[[(1R,3S)-3-Amino-4-hydroxy-1-phenylbutyl]thio]-6-(difluoromethoxy)-3-pyridinecarbonitrile (E)-butenedioate] returned a melting point of 144 to 146 °C.
The same measure for `N#Cc1cc(F)ccc1O[C@H](C[C@H](N)CO)c1cncs1.O=C(O)/C=C/C(=O)O` [Example 45, 2-[[(1R,3S)-3-Amino-4-hydroxy-1-(5-thiazolyl)butyl]oxy]-5-fluoro-benzonitrile (2E)-2-butenedioate]: 163 to 165 °C; for `COc1cc(S[C@H](C[C@H](N)CO)c2ccccc2)c(Cl)cn1` [Example 28, (β^1S,β^1R) β-Amino-δ-[(5-chloro-2-methoxy-4-pyridinyl)thio]-benzenebutanol (E)-2-butenedioate]: 191 to 193 °C; for `CC(C)(O)[C@@H](N)C[C@@H](Oc1cc(Cl)c(F)cc1C#N)c1ccccc1.O=C(O)C(=O)O` [Example 47, 2-[[(1R,3S)-3-Amino-4-hydroxy-4-methyl-1-phenylpentyl]oxy]-4-chloro-5-fluoro benzonitrile ethanedioate]: 80 °C.
Molecule `N#Cc1ncc(C(F)(F)F)cc1S[C@H](C[C@H](N)CO)c1ccccc1.O=C(O)C(=O)O` [Example 30, 3-[[(1R,3S)-3-Amino-4-hydroxy-1-phenylbutyl]thio]-5-(trifluoromethyl)-2-pyridinecarbonitrile ethanedioate] gave a melting point of 147 to 149 °C.
In the case of `COc1cc(S[C@H](C[C@H](N)CO)c2ccccc2F)c(C#N)cn1.O=C(O)C(=O)O` [Example 35, 4-[[(1R,3S)-3-Amino-1-(2-fluorophenyl)-4-hydroxybutyl]thio]-6-methoxy-3-pyridinecarbonitrile ethanedioate], the melting point fell in the range of 179 to 185 °C.
`Cc1ccc(C#N)c(SC(C[C@H](N)CO)c2ccno2)n1.O=C(O)/C=C/C(=O)O` (stereo partly drawn) [Example 51, 2-[[(3S)-3-Amino-4-hydroxy-1-(5-isoxazolyl)butyl]thio]-6-methyl-3-pyridinecarbonitrile (E)-butenedioate]: the melting point was in the range of 150 to 152 °C.
In the case of `N#Cc1ccc(C(F)(F)F)nc1OC(C[C@H](N)CO)c1ccno1.O=C(O)/C=C/C(=O)O` (stereo partly drawn) [Example 52, 2-[[(3S)-3-Amino-4-hydroxy-1-(5-isoxazolyl)butyl]oxy]-6-(trifluoromethyl)-3-pyridinecarbonitrile, (E)-butenedioate], the melting point fell in the range of 150 to 152 °C.
On to `Cl.Cl.N#Cc1ccc(Br)cc1S[C@H](C[C@H](N)CO)c1cccnc1` [Example 58, 2-[[(1R,3S)-3-Amino-4-hydroxy-1-(3-pyridyl)butyl]thio]-4-bromobenzonitrile dihydrochloride], for which the melting point fell in the range of 278 to 280 °C.
The same measure for `CCN[C@H](CO)C[C@@H](Oc1cc(Cl)c(F)cc1C#N)c1nccs1.O=C(O)C(=O)O` [Example 44, 4-Chloro-2-[[(1R,3S)-3-(ethylamino)-4-hydroxy-1-(2-thiazolyl)butyl]oxy]-5-fluoro-benzonitrile ethanedioate salt]: 55 to 80 °C.
In the case of `Cc1nc(O[C@H](C[C@H](N)CO)c2nccs2)c(C#N)cc1F.Cl` [Example 59, 2-[[(1R,3S)-3-Amino-4-hydroxy-1-(2-thiazolyl)butyl]oxy]-5-fluoro-6-methyl-3-pyridinecarbonitrile hydrochloride], the melting point fell in the range of 148 to 150 °C.

The record behind these values is patent publication US20040242871A1, “Novel arylheteroalkylamine derivatives” (priority 2001, published 2004).
